Results on one compound are retold here after patent US7288527B2, “Inhibition of allergic contact dermatitis by N-L-alpha-aspartyl-L-phenylalanine 1-methyl ester” (priority 2004, dated 2007).

Data set [1] relates to capsaicin taste receptor (tongue). Briefly: Oral application of APM with capsaicin-containing red pepper sauce. Format: in vivo. An excerpt: The variability in observable results in preventing dermatitis or topical irritation appear related to the amount of APM that is applied, the time and order of the therapeutic application, and the presence of receptors to which either the irritant oil or APM may bind.

Data set [2] deals with capsaicin burning of the eye. In words: Alleviation of capsaicin burning of the eye (Example 7). Format: in vivo, human. Conditions: about 10 mg per 250 microliters in sterile saline applied to the affected eye. Here is the method:
A kitchen worker is exposed to capsaicin oil from peppers during cooking preparation, the oil is transferred to their hands and then, by their hands, to their eyes, resulting in a burning sensation and pain. […] The application may be repeated in 15 min because tearing may dilute or wash away the active ingredients.

In data set [3] the test system is capsaicin burning sensation on the tongue. In words: Treatment of capsaicin irritation of the tongue (Example 6). Format: in vivo, human. Conditions: dry powder, at least about 10 mg APM per 250 microliters of saliva. Here is the method: A person eating spicy food seasoned with peppers is exposed to capsaicin, an irritant oil related to urushiol, causing an uncomfortable burning sensation on the tongue. APM or a derivative thereof is applied to the affected area as a dry powder in the amount of at least about 10 mg APM per 250 microliters of saliva, resulting in relief. Preferably, about 35 to about 80 mg of APM is applied to the area affected.

In data set [4] the test system is skin previously exposed to urushiol. Briefly: Treatment of allergic contact dermatitis with APM in a cream base (Example 1). Conditions: thin film of APM in a cream base; after sixty (60) minutes. In kind it is in vivo. An excerpt:
To an area of skin previously exposed to urushiol is applied a thin film of APM in a cream base. […] Further treatment may include washing the affected area to remove and displace urushiol dissolved in the applied lotion and followed by reapplication of APM containing cream or lotion.

For data set [5] the following is noted: cited from earlier work.
For data set [6], the system named is human rash secondary to urushiol exposure. Briefly: Treatment of rash caused by urushiol (Example 4). Format: in vivo. The procedure:
A human rash, with itching, in progress secondary to contact with an animal known to have had significant exposure to urushiol substances was arrested in 8 hours with 2 applications of aspartame in a Vaseline Intensive Care Lotion base (about 1.2 to 10 mg/ml). The itching ceased, and discomfort and irritation resolved within 8 hours.

In data set [7] the test system is skin which may be exposed to urushiol. Briefly: Prevention of urushiol-induced dermatitis on human skin (Example 2). In kind it is in vivo. Conditions: thin film of APM suspended in a petroleum cream base applied before exposure. The text has this: To an area of skin which may be exposed to urushiol is applied a thin film of APM suspended in a petroleum cream base.

Data set [8] concerns capsaicin burning and pain of mucosa, eyes or nose. Briefly: APM against inadvertent mucosal contact with capsaicin cream (Example 8). Format: in vivo, human. The following applies: preparation comprising 38 mg of APM per 5 ml applied to the affected area. Here is the method:
A patient is treated for arthritis with a capsaicin cream applied twice daily to the affected joint. Capsaicin is absorbed by the transdermal tissue and then transported to joint area. After an appropriate interval, for instance 2-5 days, significant reduction in swelling, heat, redness, and pain is observed. However, the patient also inadvertently contacts his or her urethra, periurethra tissues, vaginal mucosa, rectal mucosa, eyes, or nose with the capsaicin cream, resulting in a sensation of burning and pain in the affected area.

Data set [9] concerns human skin exposed to urushiol (poison sumac, poison ivy). Briefly: Treatment and prevention of urushiol-induced dermatitis on human skin (Example 3, Patient 1). Format: in vivo. The following applies: topical lotion with 0.5 to 1 mg APM/ml, two to three times per day, also two packets Equal by mouth. The procedure:
The goats frequently consumed and were in contact with both poison sumac and poison ivy abundant in their enclosure without experiencing symptoms.
A topical APM preparation was made by mixing 2 to 3 packets of Equal® brand sweetner (80-120 mg of APM) with approximately 170 ml (5.5 fluid ounces) of lotion containing Vaseline® Intensive Care® Water Resistant Moisturizing Lotion (Unilever United States, Inc.), resulting in a lotion with 0.5 to 1 mg APM/ml. Patient 1 had previously used the lotion base without effect. Patient 1 also took two packets of Equal® brand sweetener by mouth in response to a symptom of diarrhea, a condition known to be associated with urishiol.
A soap and water scrub of the affected area was done one hour after application of the cream, and the affected area allowed to air dry.
Additional affected areas were then discovered on Patient 1, and a lotion was prepared for Patient 1 to use on these areas as well as unaffected areas that could come in contact with poison ivy during their work. Patient 1 used additional topical APM preparation approximately two to three times per day.

Residues, ends and D or L forms follow the SMILES beside them.

On to `COC(=O)[C@H](Cc1ccccc1)NC(=O)[C@@H](N)CC(=O)O` [APM, N-L-alpha-aspartyl-L-phenylalanine 1-methyl ester] (H-Asp-Phe-OMe), for which the “APM response after long exposure to capsaicin” value in [1] (long duration of exposure to capsaicin leading to secondary effects) is “not as strong nor as quick”. Also, the “recognition of spicyness of red pepper sauce” value in data set [1] (oral application of APM before red pepper sauce) is listed as “absence of recognition of the spicyness”. Moreover, the “effect on developed sensations of heat and irritation” value in data set [1] (red pepper sauce applied to the tongue first, APM applied after) is “displacement by APM of capsaicin from the taste receptor is manifested and recognized quickly”. Moreover, the “burning sensation of the eye” value in [2] was “the burning sensation is alleviated”. Moreover, the “burning sensation on the tongue” value in data set [3] is listed as “relief”. Moreover, in data set [4], the “symptoms of allergic contact dermatitis” value was “significantly reduced”. In data set [5] (pH 2.2), the “maximum solubility in water” value is 20 mg/mL. Further, in [5] (pH 5.2), the “minimum solubility in water” value was 13.5 mg/mL. The “time to arrest of rash with itching” value in [6] (2 applications of aspartame in Vaseline Intensive Care Lotion base (about 1.2 to 10 mg/ml)) is 8 h. For the same compound, in data set [6] (2 applications, lotion base about 1.2 to 10 mg/ml), the “time until itching ceased and discomfort and irritation resolved” value was at most 8 h. Also, the “state of rash overnight” value in data set [6] (overnight after 2 applications, lotion base about 1.2 to 10 mg/ml) is “the rash was gone”. Besides, the “symptoms of allergic contact dermatitis (prophylactic use)” value in data set [7] was “either do not appear or are significantly reduced”. Moreover, in data set [8], the “burning and pain in the affected area” value was “reducing or eliminating the burning and pain”. In data set [9], the “rash or reaction observed on the day after application” value is reported as “no rash or reaction had occurred”.
